Measurements as given in patent US20230165970A1, “COMPOSITIONS AND METHODS FOR THE TREATMENT OF BACTERIAL INFECTIONS” (priority 2017, published 2023).
*1 amine or outer side, *2 acyl side, *3 side chain or, on linkers, in order; H or OH if unused. Where a SMILES comes first, the peptide text is derived from it. Bridges are numbered along the chain shown (N, C = ends). [ ]: non-standard residue; d: D form. The star is where a group is joined. Propargyl(OCH2CH2)4CO = C#CCOCCOCCOCCOCCC(=O)*; X1 = CCCCCC[C@@H](O)[C@H](N[*:1])C(=O)[*:2]; X3 = CCCCC[C@@H](O)[C@H](N[*:1])C(=O)[*:2]; Nle = CCCC[C@H](N)C(=O)O; Dab = NCC[C@H](N)C(=O)O

System: LPS from E. coli O111:B4
Test: LPS binding/neutralization by Limulus Amebocyte Lysate (LAL) assay
Assay type: biochemical
Details: LPS 1-10,000 ng/mL, test article 0.25-10 μM; for % LPS neutralization of TM: sum of AUCs relative to maximal AUC (Table 14)
Protocol: The LAL assay (Charles River) was used to determine the binding affinity of test articles to LPS.
(§1) For the assay, 25 μL purified LPS from E. coli O111:1B4 (Sigma) at doses ranging from 1-10,000 ng/mL were incubated with 25 μL of test article at concentrations ranging from 0.25-10 NM. After 5 min incubation at 37° C., 50 μL of LAL reagent, which reacts with lipid A portion from LPS, was added to corresponding wells. After 15 min, absorbance at 405 nm was read on EnSpire plate reader (Perkin Elmer). The % LPS neutralization is calculated relative to a PBS control (background) and LPS control at each concentration (positive control).
LPS neutralization=(1−(absorbance test article−PBS with LAL reagent)/(absorbance no test article−PBS with LAL reagent))×100
To obtain a single value of LPS neutralization for each test article, the area under the curve (AUC) for dose-response of test articles from […] for each LPS concentration was calculated using Prism 7 software. The % LPS neutralization is the sum of the AUCs for each LPS concentration determined relative to the maximal AUC achievable×100.
as §1, with “O111:B4” for “O111:1B4”, “μM.” for “NM.”

Molecule | % LPS neutralization of TM | % LPS neutralization (sum of AUCs relative to maximal AUC (Table 15))
C#CCOCCOCCOCCOCCC(=O)N[C@@H](CCCC)C(=O)N[C@@H](CCN)C(=O)N[C@H](C(=O)N[C@@H](CCN)C(=O)N[C@H]1CCNC(=O)[C@H]([C@@H](C)O)NC(=O)[C@H](CCN)NC(=O)[C@H](CCN)NC(=O)[C@H](CC(C)C)NC(=O)[C@@H](Cc2ccccc2)NC(=O)[C@H](CCN)NC1=O)[C@H](O)CCCCC [Int-94] ({Propargyl(OCH2CH2)4CO}-[Nle][Dab][X3][Dab][Dab][Dab][dF]L[Dab][Dab]T; lactam 5-C) | 79.3% | –
C#CCOCCOCCOCCOCCC(=O)N[C@@H](CCCC)C(=O)N[C@@H](CCN)C(=O)N[C@H](C(=O)N[C@@H](CCN)C(=O)N[C@H]1CCNC(=O)[C@H]([C@@H](C)O)NC(=O)[C@H](CCN)NC(=O)[C@H](CCN)NC(=O)[C@H](CC(C)C)NC(=O)[C@@H](Cc2ccccc2)NC(=O)[C@H](CCN)NC1=O)[C@H](O)CCCCCC [Int-80] ({Propargyl(OCH2CH2)4CO}-[Nle][Dab][X1][Dab][Dab][Dab][dF]L[Dab][Dab]T; lactam 5-C) | 55.7% | –
colistin sulfate | – | 9.21%
